Non-standard residues stand in square brackets, D forms with d. Residues, ends and D or L forms follow the SMILES beside them. No end group written: not given here. *: point of attachment. NH(2-adamantyl) = C1C2CC3CC1CC(C2)C3N*; 2Nal = N[C@@H](Cc1ccc2ccccc2c1)C(=O)O; Sta = CC(C)C[C@H](N)[C@@H](O)CC(=O)O; NEtPhe = CCN[C@@H](Cc1ccccc1)C(=O)O; Isovaleryl = CC(C)CC(=O)*
Tests used:
Male Charles River mice = test: Hot-plate Assay; assay type: in vivo, mouse; settings: subcutaneous, dose active if 50% of the animals showed analgesia
Procedure: (§1) The in vivo analgesic activity of the compounds of this invention illustrated in the examples was tested using the following hot-plate and writhing assays. Tyrosyl-N-(phenylpropyl)-D-alaninamide, a known analog of enkephalin, is active in these assays.
Male Charles River mice (COBS CD-1(ICR)BR) weighing 20 to 30 grams were used in this assay. Two groups of fourteen mice were placed individually in a restraining cylinder placed on a hot plate kept at 55° (±0.5°). The reaction time for each mouse to lick a foot or jump was measured three times at 20 minute intervals. Mice not responding within fifteen seconds were discarded. Twenty minutes after the last reaction experiment ten mice were given a dose of the test compound and ten were given 0.9% saline (each solution containing approximately 0.09 ml of a 1:1 mixture by volume of propylene glycol and polysorbate 80) subcutaneously. The response times of the animals were measured as before at 30, 60, 90, and 120 minute intervals after this injection. Mice not responding within 30 seconds were removed from the hot plate and given a response time of 30 seconds. […] The ED50 of each active test compound was then calculated. See N. B. Eddy, D. Leimbach, J. Pharmacol. and Exp. Therap., 107, 385-393 (1953).

[1] = system: Male Charles River albino mice; test: PBQ-Writhing Assay; assay type: in vivo, mouse; settings: analgesia if writhes equal to or less than one-half the control median
Procedure: as §1
Male Charles River albino mice (CD-1(ICR)BR) weighing 20 to 30 grams were used in this assay. Thirty minutes after subcutaneous or intragastric administration (0.1 ml per 10 g of body weight) or fifteen minutes after intracerebroventricular administration (5 mcl total volume), a 0.025% solution of phenylbenzoquinone (PBQ) was injected intraperitoneally (0.1 ml per 10 g of body weight). Five minutes later each mouse was placed in a glass beaker and the number of writhes occurring in the next ten minutes was counted. (A writhe consists of dorsoflexion of the back, extension of the hindlimbs, and strong contraction of the abdominal musculature.) The test compound was considered to have produced analgesia in a mouse if the number of writhes elicited by PBQ was equal to or less than one-half the median number of writhes recorded for the saline-treated control group of mice that day. Results were expressed as the number of mice out of a possible ten in which the test compound produced analgesia. […]

Opiate receptor = test: Opiate Receptor Binding; settings: rat brain membrane homogenates, tritium-labeled naloxone
Procedure: Opiate receptor binding of the compounds of this invention illustrated in the examples was tested by the following method.
A 2 ml portion of the homogenate is incubated at 25° with the test compound (10 mcM) and tritium-labeled naloxone (1.0 nM). After sixty minutes, samples were rapidly cooled on ice, collected over glass-fiber filters, washed with cold buffer, and solubilized by incubation with 1.0 ml of NCS tissue solubilizer. Samples were then prepared for counting in a liquid scintillation counter. Specific binding was calculated, with results expressed as percent inhibition at the test dose.

human renin = target: T1, human renin (Homo sapiens, UniProt P00797); test: Inhibition of Human Renin; assay type: biochemical; settings: angiotensin I formed by radioimmunoassay; considered active if inhibition was greater than 20%
T1 construct: tissue World Health Organization International Laboratory for Biological Standards (National Institute for Biological Standards and Control, London, England); host or cells: human kidney
T1 sequence (P00797 67-406): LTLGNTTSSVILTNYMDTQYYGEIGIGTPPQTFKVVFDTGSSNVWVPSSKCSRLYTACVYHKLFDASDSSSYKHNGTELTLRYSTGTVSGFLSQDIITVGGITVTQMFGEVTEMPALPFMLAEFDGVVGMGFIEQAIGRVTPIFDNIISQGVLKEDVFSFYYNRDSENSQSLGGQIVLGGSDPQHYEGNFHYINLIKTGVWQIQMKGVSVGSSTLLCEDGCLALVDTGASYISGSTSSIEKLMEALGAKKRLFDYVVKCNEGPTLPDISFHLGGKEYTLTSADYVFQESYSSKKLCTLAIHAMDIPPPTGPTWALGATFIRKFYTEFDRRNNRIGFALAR
Procedure: The renin inhibition activity of the compounds of this invention illustrated in the examples was tested by the following method.
International reference standard human renin, isolated from kidneys, was obtained from the World Health Organization International Laboratory for Biological Standards (National Institute for Biological Standards and Control, London, England). Renin activity is defined in "Goldblatt units" (GU), the quantity that, when injected directly into the blood stream of an unanesthetized dog, raises the direct mean femoral artery blood pressure by 30 mm Hg in about two minutes. E. Haas, L. Lewis, P. Scipione, and T. J. Koshy, Hypertension, 1, 112-117 (1979). Human angiotensinogen was used as an unisolated component of human blood plasma. The enzyme inhibition assay, see K. Poulsen, J. Burton, and E. Haber, Biochemistry, 12, 3877-3882 (1973), involved a two-hour incubation at 37° C. of the following final concentrations of reagents (0.25 ml total volume): 0.1 mGU/ml human renin; 0.05 ml human plasma; 6 mM disodium EDTA; 2.4 mM phenylmethylsulfonyl fluoride and 1.5 mM 8-hydroxyquinoline (angiotensinase inhibitors); 0.4 mg/ml bovine serum albumin; and 0.024 neomycin sulfate in 100 mM Tris-acetate buffer (pH 7.5). The enzymatic reaction was terminated by boiling the mixture for ten minutes. The quantity of angiotensin I formed was determined by radioimmunoassay, using the general method used in the angiotensin I radioimmunoassay kit of New England Nuclear.

[2] = system: sodium depleted Rhesus monkeys; test: Rhesus Monkey Blood Pressure Test; assay type: in vivo
Procedure: Rhesus monkeys were sodium depleted by means of a fruit diet in combination with intramuscular furosemide injections (0.5 mg per kg of body weight) given twice daily for four days. This procedure causes blood pressure to become dependent on plasma renin activity. J. Burton, R. J. Cody, Jr., A. J. Herd, and E. Haber, Proc. Natl. Acad. Sci. U. S. A., 77, 5476-5479 (1980). On the fifth day the animals were anesthetized with ketamine (100 mg administered intravenously). The femoral artery was cannulated for blood pressure measurement and a percutaneous venous cannula was inserted for test compound administration. The animals were allowed to recover from anesthesia and were restrained in a transparent plastic chair. […]

[3] = system: renal-ligated hypertensive rat; test: Renal-ligated Hypertensive Rat Assay; assay type: in vivo; settings: renal-ligated rats
Procedure: Male Sprague Dawley rats aged 11 to 15 weeks old were used in this test. […] Test compounds were administered intra-arterially at a dose of 10 mg per kg of body weight, and blood pressure changes were monitored directly at 5, 10, and 15 minutes after injection.

With `C[C@@H](NC(=O)[C@@H](N)Cc1ccc(O)cc1)C(=O)NCCCc1ccccc1` [Tyrosyl-N-(phenylpropyl)-D-alaninamide] the “analgesic activity, hot-plate” value (Male Charles River mice) was “active” and the “analgesic activity, PBQ writhing” value [1] was “active”.
`CCN[C@@H](Cc1ccccc1)C(=O)N[C@H](CCSC)C(=O)NCC(=O)N[C@@H](Cc1ccccc1)C(=O)NC1C2CC3CC(C2)CC1C3.Cl` (stereo partly drawn) [Example 15, N^α -ethyl-L-phenylalanyl-D-methionylglycyl-N-(2-adamantyl)-L-phenylalaninamide hydrochloride] (H-[NEtPhe][dM]GF-{NH(2-adamantyl)}) was tested, and the “opiate receptor binding relative to prior art compounds of U.S. Pat. No. 4,273,704” value (Opiate receptor) was “significantly lower opiate receptor binding” and the renin inhibition activity (human renin) was “possess renin inhibition activity”.
With “PHPFHFFVYK [RIP, prolylhistidylprolylphenylalanylhistidylphenylalanylphenylalanylvalyltyros yllysine]” the mean blood pressure ([2]; 1.0 mg per kg) was “significantly lowered”.
`C[C@H](CS)C(=O)N1CCC[C@H]1C(=O)O` [captopril] was tested, and the mean blood pressure ([2]; 0.1 mg per kg) was “significantly lowered”.
For `CC(C)CC(=O)N[C@H](C(=O)N[C@H](C(=O)N[C@@H](CC(C)C)[C@@H](O)CC(=O)N[C@@H](C)C(=O)N[C@@H](CC(C)C)[C@@H](O)CC(=O)O)C(C)C)C(C)C` [Pepstatin] (Isovaleryl-VV[Sta]A[Sta]-OH), the plasma renin activity [3] was “significantly reduced”, the “mean arterial blood pressure” value ([3]; intra-arterial administration, significance P≤0.05) was “significantly reduced” and the renin inhibition activity (human renin) was “active”.
For `CSCC[C@@H](NC(=O)[C@@H](N)Cc1ccc2ccccc2c1)C(=O)NCC(=O)N[C@@H](Cc1ccccc1)C(=O)NC1C2CC3CC(C2)CC1C3.Cl` (stereo partly drawn) [Example 29, 3-(2-naphthalenyl)-L-alanyl-D-methionylglycyl-N-(2-adamantyl)-L-phenylalaninamide hydrochloride] (H-[2Nal][dM]GF-{NH(2-adamantyl)}), the “opiate receptor binding relative to prior art compounds of U.S. Pat. No. 4,273,704” value (Opiate receptor) was “significantly lower opiate receptor binding” and the renin inhibition activity (human renin) was “possess renin inhibition activity”.
